In the supplement of paper PMC10307832:

Legend:
Experiment in all cases: relative viability (nuclei count vs DMSO), 5 days (fraction); higher = more cells survive
[1] = compound: Cc1ccc(C(=O)Nc2ccc(CN3CCN(C)CC3)c(C(F)(F)F)c2)cc1C#Cc1cnc2cccnn12 [Ponatinib] + Nc1ncn([C@H]2C[C@H](O)[C@@H](CO)O2)c(=O)n1 [Decitabine] (partner 2 µM)
Procedure, shortened: (§1)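 Dosing by pin tool came one day after lung cancer cell lines were seeded in 1536-well plates, using either one drug or a fixed anchor-drug dose plus five library-drug doses (not always all listed) in √10 steps. After 5 days, nuclei were counted on 4× images. Relative viability is treated-well nuclei count divided by vehicle-well nuclei count, and values are medians of duplicate plates.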

[2] = compound: Cc1ccc(Nc2nccc(N(C)c3ccc4c(C)n(C)nc4c3)n2)cc1S(N)(=O)=O [Pazopanib] + CC1(C)CCC(c2ccc(Cl)cc2)=C(CN2CCN(c3ccc(C(=O)NS(=O)(=O)c4ccc(N[C@H](CCN5CCOCC5)CSc5ccccc5)c(S(=O)(=O)C(F)(F)F)c4)cc3)CC2)C1 [Navitoclax] (partner 0.5 µM)
Procedure, shortened: as §1

[3] = compound: Cc1ccc(C(=O)Nc2ccc(CN3CCN(C)CC3)c(C(F)(F)F)c2)cc1C#Cc1cnc2cccnn12 [Ponatinib] + CC(=O)Nc1cccc(-n2c(=O)n(C3CC3)c(=O)c3c(Nc4ccc(I)cc4F)n(C)c(=O)c(C)c32)c1 [Trametinib] (partner 0.02 µM)
Procedure, shortened: as §1

[4] = compound: Cc1ccc(C(=O)Nc2ccc(CN3CCN(C)CC3)c(C(F)(F)F)c2)cc1C#Cc1cnc2cccnn12 [Ponatinib] + N=C(N)NC(=N)NCCc1ccccc1 [Phenformin] (partner 250 µM)
Procedure, shortened: as §1

Cell Line | relative viability ([1]; first compound 0.002 µM) | relative viability ([1]; first compound 0.006325 µM) | relative viability ([1]; first compound 0.06325 µM) | relative viability ([1]; first compound 0.2 µM) | relative viability ([2]; first compound 0.01 µM) | relative viability ([2]; first compound 0.03162 µM) | relative viability ([2]; first compound 0.1 µM) | relative viability ([2]; first compound 0.3162 µM) | relative viability ([2]; first compound 1 µM) | relative viability ([3]; first compound 0.002 µM) | relative viability ([3]; first compound 0.006325 µM) | relative viability ([3]; first compound 0.06325 µM) | relative viability ([3]; first compound 0.2 µM) | relative viability ([4]; first compound 0.002 µM) | relative viability ([4]; first compound 0.006325 µM) | relative viability ([4]; first compound 0.06325 µM) | relative viability ([4]; first compound 0.2 µM)
HARA | 0.486 | 0.632 | 0.568 | 0.665 | 1.2 | 1.03 | 1.13 | 1.15 | 1.2 | 0.633 | 0.581 | 0.633 | 0.443 | 0.446 | 0.437 | 0.44 | 0.388
NCI-H2087 | 0.186 | 0.294 | 0.338 | 0.264 | 1.03 | 1.04 | 1.1 | 1.01 | 0.8 | 0.217 | 0.201 | 0.131 | 0.153 | 0.517 | 0.471 | 0.493 | 0.439
NCI-H1437 | 0.498 | 0.548 | 0.606 | 0.593 | 1.11 | 1.06 | 1.07 | 0.985 | 1.08 | 0.413 | 0.496 | 0.741 | 0.613 | 0.293 | 0.334 | 0.322 | 0.302
NCI-H1792 | 0.476 | 0.488 | 0.516 | 0.495 | – | 0.62 | 0.58 | 0.627 | 0.569 | 0.312 | 0.546 | 0.54 | 0.403 | 0.268 | 0.22 | 0.354 | 0.205
ChaGo-K-1 | 0.517 | 0.507 | 0.54 | 0.512 | 0.935 | 1.07 | 0.997 | 0.792 | 1.06 | 0.863 | 0.907 | 0.914 | 0.815 | 0.423 | 0.447 | 0.477 | 0.466
COR-L23 | 0.391 | 0.427 | 0.504 | 0.424 | 0.971 | 1.08 | 0.985 | 0.978 | 1.06 | 0.526 | 0.593 | 0.372 | 0.387 | 0.382 | 0.453 | 0.419 | 0.436
COR-L 105 | 0.671 | 0.674 | 0.821 | 0.61 | 0.891 | 0.698 | 0.787 | 0.732 | 0.773 | 0.429 | 0.479 | 0.473 | 0.457 | 0.421 | 0.479 | 0.501 | 0.466
LK-2 | 0.301 | 0.312 | 0.273 | 0.274 | 0.67 | 0.925 | 0.863 | 0.788 | 0.821 | 0.787 | 0.666 | 0.746 | 0.587 | – | 0.52 | 0.239 | 0.21
201T | 0.849 | 0.862 | 0.914 | 0.811 | 1.21 | 1.22 | 1.26 | 1.18 | 1.17 | 0.705 | 0.733 | 0.762 | 0.693 | 0.417 | 0.458 | 0.438 | 0.42
HCC-44 | 0.936 | 0.976 | 0.898 | 0.884 | 0.87 | 0.896 | 1 | 0.82 | 0.984 | 1 | 1.02 | 1.05 | 1.06 | 0.22 | 0.225 | 0.207 | 0.151
